The text below walks through data of US3974184A, “Microbial production of certain isoflavones” (Zaidan Hojin Biseibutsu Kagaku Kenkyu Kai, priority 1973, dated 1976).

SMILES strings stand for the structures. “Also recorded” adds a separate entry of the source. Read-outs that look alike come from different tables or passages of the source.

Assay [1] concerns the target T1, catechol-O-methyl transferase (COMT) (Rattus norvegicus, UniProt P22734).
T1 sequence (P22734 1-221 isoform P22734-2): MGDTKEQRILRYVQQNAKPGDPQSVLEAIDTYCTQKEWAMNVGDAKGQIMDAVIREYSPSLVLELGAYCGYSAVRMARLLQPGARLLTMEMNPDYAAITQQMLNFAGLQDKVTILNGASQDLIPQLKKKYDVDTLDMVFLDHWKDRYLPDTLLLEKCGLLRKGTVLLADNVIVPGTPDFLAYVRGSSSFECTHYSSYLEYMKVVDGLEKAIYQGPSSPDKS
Kind of assay: Inhibition of catechol-O-methyl transferase (formation of tritium metanephrine). In kind it is biochemical.
Protocol: The compounds (I), (II) and (III) can be determined by measuring inhibition of COMT. The activity of COMT is measured in accordance with the method reported by B. Nikodejevic et al. (Ref. "The Journal of Pharmacology and Experimental Therapeutics", Vol. 174, pp. 83-93, by B. Nikodejevic et al., 1970). 0.5 cc total volume of reaction liquid is prepared from 0.125 cc of water, 0.05 cc of 0.1 mole phosphate buffer solution (pH 8.0), 0.1 cc of 0.1 mole magnesium chloride solution, 0.05 cc. of 0.05 mole adrenaline solution, 0.075 cc of 0.5 millimole tritium-8-adenosyl methionine aqueous solution (2.2 × 10^5 cpm), 0.05 cc of sample solution and 0.05 cc of enzyme solution. These solutions are mixed together at 0° C. and, after reacting for 20 minutes at 37° C., 1 cc of 0.5 mole boric acid buffer solution (pH 10.0) is added to stop the reaction. Then, tritium metanephrine (^3 H-metanephrine) wherein the meta-hydroxyl group has been methylated is extracted with a solvent mixture such as toluene-isoamyl alcohol (3:2). A quantity of solvent portion is then sampled and its radioactivity is measured by use of a liquid scintillation counter. The thusly obtained measurement of radioactivity tells the quantity of formed metanephrine, which in turn permits one to determine the inhibition.

The next assay has as its target T2, histidine decarboxylase (Homo sapiens, UniProt P19113).
T2 sequence (P19113 1-662): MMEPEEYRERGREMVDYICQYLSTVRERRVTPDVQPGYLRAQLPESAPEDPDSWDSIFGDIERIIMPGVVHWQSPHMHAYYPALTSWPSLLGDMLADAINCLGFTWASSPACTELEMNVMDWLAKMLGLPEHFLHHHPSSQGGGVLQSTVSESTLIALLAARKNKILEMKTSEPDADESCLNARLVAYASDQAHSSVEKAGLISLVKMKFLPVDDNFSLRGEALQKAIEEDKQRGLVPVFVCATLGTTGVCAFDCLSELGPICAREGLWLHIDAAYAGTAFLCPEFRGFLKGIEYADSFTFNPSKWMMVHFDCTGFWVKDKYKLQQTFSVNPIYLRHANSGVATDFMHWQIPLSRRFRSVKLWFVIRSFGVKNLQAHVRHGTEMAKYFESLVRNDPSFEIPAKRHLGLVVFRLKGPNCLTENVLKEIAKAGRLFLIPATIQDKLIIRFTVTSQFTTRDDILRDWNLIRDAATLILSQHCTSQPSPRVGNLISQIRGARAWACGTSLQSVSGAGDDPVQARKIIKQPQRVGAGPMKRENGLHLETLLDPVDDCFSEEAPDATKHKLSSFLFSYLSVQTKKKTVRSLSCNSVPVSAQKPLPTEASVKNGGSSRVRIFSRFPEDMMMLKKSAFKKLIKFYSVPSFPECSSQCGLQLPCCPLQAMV
Kind of assay: Inhibition of histidine decarboxylase (formation of histamine-2-14C). Type of assay: biochemical. Conditions: for inhibiting action against histidine decarboxylase: in words; for IC50: read-out: concentration for 50% inhibition ratio of histidine decarboxylase (converted). As for the experimental part: This inhibition is measured in the following manner:
The reaction liquid is prepared from 2.5 × 10^-^4 mole of L-histidine-2-^14 C (1.0 × 10^5 cpm), 3.7 × 10^-^5 mole of pyridoxal phosphate, 0.1 cc of histidine decarboxylase (protein content, 1 mg/cc), 0.1 cc of 0.67 mole phosphate buffer solution (pH 6.8) and sample solution. To this mixture there is added distilled water until 1 cc total volume of reaction liquid is obtained. The thusly prepared reaction liquid is then allowed to react for 2 hours at 37° C. and the formed histamine-2-^14 C is adsorbed on ammonia type "Amberlite CG-50". After washing the "Amberlite CG-50" with water, the adsorbed histamine is eluted with 1 N aqueous ammonia and a quantity of elute is sampled to measure its radioactivity by use of a liquid scintillation counter. The thusly measured radioactivity tells the quantity of formed histamine, so that the inhibition against histidine decarboxylase can be determined.

The mark [2] stands for this setting: isolated compounds, read-out: concentration inhibiting the activity of COMT by 50% (converted).
The mark [3] stands for this setting: powders from silica gel fractions, Example 1, read-out: concentration showing 50% inhibition against COMT (converted).

With `COc1ccc(-c2coc3c(OC)c(O)cc(O)c3c2=O)cc1O` [Compound (II), 3',5,7-trihydroxy-4',8-dimethoxy-isoflavone], the IC50 in assay [1] (setting [2]) was 15.1 µM; in assay [1] (setting [3]) it was 236 µM; at histidine decarboxylase (printed in parentheses), 4.5 µM; on histidine decarboxylase, 4.54 µM. Moreover, the “inhibiting action against histidine decarboxylase” value against histidine decarboxylase is “inhibit; also recorded: inhibiting action”.

`COc1ccc(-c2coc3c(OC)c(O)c(OC)cc3c2=O)cc1O` [Compound (III), 3',7-dihydroxy-4',6,8-trimethoxy-isoflavone]: the “selectivity for COMT against the other enzymes” value in assay [1] (in words, other enzymes: tyrosine hydroxylase, dopamin-β-hydroxylase, DOPA decarboxylase, histidine decarboxylase) was “inhibiting action only against COMT and not against the other enzymes”. Moreover, the IC50 was 0.581 µM in assay [1] (setting [2]) and 14.5 µM in assay [1] (setting [3]). Moreover, on histidine decarboxylase (2 h, at 100 .nu./cc, read-out: inhibition ratio against histidine decarboxylase), the inhibition at 100 µg/mL was roughly 31.9%. The “inhibiting action against histidine decarboxylase” value on histidine decarboxylase is “inhibiting action”.

As for `COc1ccc(-c2coc3cc(O)c(OC)c(O)c3c2=O)cc1O` [Compound (I), 3',5,7-trihydroxy-4',6-dimethoxy-isoflavone], at histidine decarboxylase, the “inhibiting action against histidine decarboxylase” value is “inhibit; also recorded: inhibiting action” and the IC50 is 18.2 µM. For the same molecule, the IC50 on histidine decarboxylase (printed in parentheses) was 18 µM.
